Assay results reported in paper PMC8821706, “Design and synthesis of novel nitrothiazolacetamide conjugated to different thioquinazolinone derivatives as anti-urease agents” (Scientific Reports, 2022).
Values after ≈ are worked out from the molar mass of the structure shown. Like-named read-outs stand apart in the source and are kept apart here.

What was measured:
urease [1] = conditions: cited from earlier work
urease [2] = target: T1, urease (Canavalia ensiformis, UniProt P07374); assay: biochemical; type: biochemical, jack bean; conditions: for improvement in potency compared to thiourea: ratio of urease IC50 versus thiourea (positive control)
Description: In vitro anti-urease activity of synthesized compounds, 8a-n were performed based on the […] method against urease compared with thiourea as the reference inhibitor.
Urease inhibition effects of the synthesized compounds were determined according to the previously reported procedure[47]–[49]. 100 μL of the synthesized compounds at different concentrations was added to 850 μL of urea as substrate and 15 μL urease (0.135 units dissolved in PBS, pH 7.4). After 30 min, to 100 μL of the incubated solution, 500 μL solution I (5.0 g phenol and 25.0 mg sodium nitroprusside in 500 mL water) was added followed by the addition of 500 μL of solution II (2.5 g sodium hydroxide, 4.2 mL sodium hypochlorite, and 5% chlorine in 500 mL water) which was further incubated at 37 °C for 30 min. The absorbance was determined by measuring indophenols at 625 nm. Thiourea was used as the standard inhibitor for urease. The IC50 values for all synthesized compounds were calculated using GraphPad Prism software (GraphPad Software, Inc., San Diego, CA).

C. neoformans (H99) = assay: Anti-ureolytic activity, colorimetric microdilution in urea broth; type: cell-based; conditions: Cryptococcus neoformans, 72 h; 560 nm, after three days; read-out: IC50 (µg/ml) of C. neoformans (anti-ureolytic effect)
Description: (§1) The colorimetric microdilution technique using urea broth media (Merck, supplemented with glucose; pH = 6 for C. neoformans) was used to examine the urolytic activity of C. neoformans (H99), and clinical isolate of P.vulgaris treated with tested substances. Compounds in the concentration range of 1–512 μg/mL were exposed to ureolytic microorganisms, and the color of the medium was evaluated visually and spectroscopically at 560 nm after three days for C. neoformans and 24 h for P. vulgaris. The positive control, which included ureolytic bacteria but no drugs, changed color from yellow to dark pink or magenta. This shifts, allowing the determination of the inhibitory activity of compounds against urease activity of organisms even without a microtiter plate reader[57],[58].

[3] = test system: clinical isolate of P.vulgaris; assay: as above; type: cell-based; conditions: Proteus vulgaris; 560 nm, after 24 h; read-out: IC50 (µg/ml) of P. vulgaris (anti-ureolytic effect)
Description: as §1

[4] = test system: clinical isolate of Proteus vulgaris; assay: Antimicrobial activity, microbroth dilution (CLSI); type: cell-based; conditions: tested 1 to 512 μg/ml
Description: (§2) The antimicrobial activity of compounds against the microorganisms including C. neoformans (H99), and clinical isolate of P.vulgaris was assessed using the microbroth dilution method, as recommended by the Clinical and Laboratory Standards Institute (CLSI) (M07-A9 for bacteria; M27-A3 for yeasts). The compounds were diluted, and stock solutions of 20 mg/ml in DMSO were prepared. Mueller–Hinton Broth (HiMedia) and RPMI-1640 (Sigma) were prepared as recommended for antimicrobial susceptibility testing of bacterial and fungal strains, respectively. Two-fold dilutions were made in the range of 1–512 μg/ml for tested compounds. The microbroth dilution test was accomplished using a 96-well microtiter plate, containing growth control (yeast culture in broth media) and sterility control (broth media without fungal culture). The antimicrobial susceptibility test was accomplished by adding a cell suspension adjusted to the 0.5 McFarland standard (1–2 × 10^8 CFU/mL for bacterial strains; 1−5 × 10^6 cells/ml for yeast) to different concentrations of tested compounds. […] All experiments were performed in duplicates.

[5] = test system: Cryptococcus neoformans (H99); assay: Antimicrobial activity, microbroth dilution (CLSI); type: cell-based; conditions: tested 1 to 512 μg/ml
Description: as §2

urease [6] = target: T1, urease; assay: Kinetic study of urease inhibition (Lineweaver–Burk); type: biochemical, jack bean
Description: The mechanism of urease inhibition was investigated by enzyme kinetics, following the similar procedure of the urease inhibition assay. Lineweaver–Burk graphics were used to estimate the type of inhibition.
The kinetic study for the inhibition of urease by compound 8h was carried out using four different concentrations of inhibitor. For the kinetic study of urease, compound 8h was used at the concentrations of 0, 1, 2, and 4 μM. The Lineweaver–Burk reciprocal plot was constructed by plotting 1/V against 1/[S] at variable concentrations of the substrate urea (3.12–100 mM). The inhibition constant Ki was calculated by the plot of slopes versus the corresponding concentrations of the compound 8h.

H. pylori = test system: H. pylori; set-up: method as in PMID 10394014; conditions: cited from earlier work

T1 sequence (P07374 whole entry, looked up): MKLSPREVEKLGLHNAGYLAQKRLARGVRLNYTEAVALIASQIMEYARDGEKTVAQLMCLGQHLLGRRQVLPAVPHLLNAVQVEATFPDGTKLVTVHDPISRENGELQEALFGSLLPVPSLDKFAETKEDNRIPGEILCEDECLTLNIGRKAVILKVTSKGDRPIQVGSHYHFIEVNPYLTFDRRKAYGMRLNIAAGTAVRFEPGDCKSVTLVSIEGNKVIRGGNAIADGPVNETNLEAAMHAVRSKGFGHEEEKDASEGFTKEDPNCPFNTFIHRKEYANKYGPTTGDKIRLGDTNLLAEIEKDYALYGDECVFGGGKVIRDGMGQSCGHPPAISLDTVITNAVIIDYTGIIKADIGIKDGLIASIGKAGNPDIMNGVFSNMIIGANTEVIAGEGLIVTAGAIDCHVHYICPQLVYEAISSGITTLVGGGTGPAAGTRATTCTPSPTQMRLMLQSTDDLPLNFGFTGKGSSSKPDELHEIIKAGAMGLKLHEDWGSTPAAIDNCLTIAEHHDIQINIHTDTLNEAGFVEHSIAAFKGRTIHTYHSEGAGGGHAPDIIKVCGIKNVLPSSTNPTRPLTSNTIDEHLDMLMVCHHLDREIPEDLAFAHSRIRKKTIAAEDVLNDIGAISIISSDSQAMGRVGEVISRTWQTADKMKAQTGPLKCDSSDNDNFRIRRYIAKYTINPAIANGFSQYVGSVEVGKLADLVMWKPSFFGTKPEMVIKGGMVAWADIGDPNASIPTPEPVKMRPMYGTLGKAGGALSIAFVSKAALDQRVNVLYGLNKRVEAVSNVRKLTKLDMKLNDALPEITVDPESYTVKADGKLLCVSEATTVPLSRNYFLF

Q: With `O=C(Cn1c(Cc2ccc(Cl)cc2)nc2ccccc2c1=O)N/N=C/c1ccco1` [A] as the molecule, how does the “IC50 (urease)” value (urease [1]; 2,3-disubstituted quinazolin-4(3H)-ones, Fig. 1A) read?
A: 1.55 ± 0.11 µg/mL (≈ 3.68 µM)

Q: For `CCc1nc2ccccc2c(=O)n1CC(=O)NNC(=O)c1cc2cc(Br)ccc2oc1=O` [B], which “IC50 (urease)” value (urease [1]; quinazolinone-coumarin derivatives, Fig. 1B) is on record?
A: 1.26 ± 0.07 µg/mL (≈ 2.53 µM)

Q: For `CCNc1nnc(Cn2c(Cc3ccc(F)cc3)nc3ccccc3c2=O)s1` [C], which “IC50 (urease)” value (urease [1]; quinazolin-4(3H)-ones, Fig. 1C) is on record?
A: 1.88 ± 0.17 µg/mL (≈ 4.75 µM)

Q: Which results are given for `O=C(CSc1nc2ccccc2c(=O)n1-c1ccccc1)Nc1ncc([N+](=O)[O-])s1` [Compound 8a, N-(5-nitrothiazol-2-yl)-2-((4-oxo-3-phenyl-3,4-dihydroquinazolin-2-yl)thio)acetamide]?
A: IC50 (urease [2]): 4.72 ± 0.26 µM; improvement in potency compared to thiourea (urease [2]): around fivefold

Q: With `O=C(CSc1nc2ccccc2c(=O)n1-c1ccc(Cl)cc1)Nc1ncc([N+](=O)[O-])s1` [Compound 8b, 2-((3-(4-chlorophenyl)-4-oxo-3,4-dihydroquinazolin-2-yl)thio)-N-(5-nitrothiazol-2-yl)acetamide] as the molecule, how does the IC50 (urease [2]) read?
A: 2.34 ± 0.19 µM

Q: Which IC50 (C. neoformans (H99)) does the source give for `O=C(CSc1nc2ccccc2c(=O)n1-c1ccc(Br)cc1)Nc1ncc([N+](=O)[O-])s1` [Compound 8c, 2-((3-(4-bromophenyl)-4-oxo-3,4-dihydroquinazolin-2-yl)thio)-N-(5-nitrothiazol-2-yl)acetamide] here?
A: 174 ± 4.9 µg/mL (≈ 335 µM)

Q: And the IC50 [3]?
A: 383 ± 5.1 µg/mL (≈ 739 µM)

Q: And the MIC [4]?
A: > 512 µg/mL

Q: What about the MIC [5] of the same molecule?
A: > 512 µg/mL

Q: What about the IC50 (urease [2]) of the same molecule?
A: 2.22 ± 0.09 µM

Q: With `COc1ccc(-n2c(SCC(=O)Nc3ncc([N+](=O)[O-])s3)nc3ccccc3c2=O)cc1` [Compound 8d, 2-((3-(4-methoxyphenyl)-4-oxo-3,4-dihydroquinazolin-2-yl)thio)-N-(5-nitrothiazol-2-yl)acetamide] as the molecule, how does the IC50 (urease [2]) read?
A: 2.78 ± 0.32 µM

Q: With `O=C(CSc1nc2ccccc2c(=O)n1Cc1ccccc1)Nc1ncc([N+](=O)[O-])s1` [Compound 8e, 2-((3-benzyl-4-oxo-3,4-dihydroquinazolin-2-yl)thio)-N-(5-nitrothiazol-2-yl)acetamide] as the molecule, how does the IC50 (urease [2]) read?
A: 3.83 ± 0.17 µM

Q: With `Cc1ccc(Cn2c(SCC(=O)Nc3ncc([N+](=O)[O-])s3)nc3ccccc3c2=O)cc1` [Compound 8f, 2-((3-(4-methylbenzyl)-4-oxo-3,4-dihydroquinazolin-2-yl)thio)-N-(5-nitrothiazol-2-yl)acetamide] as the molecule, how does the IC50 (urease [2]) read?
A: 3.5 ± 0.28 µM

Q: What does the source list for `O=C(CSc1nc2ccccc2c(=O)n1Cc1cccnc1)Nc1ncc([N+](=O)[O-])s1` [Compound 8g, N-(5-nitrothiazol-2-yl)-2-((4-oxo-3-(pyridin-3-ylmethyl)-3,4-dihydroquinazolin-2-yl)thio)acetamide]?
A: IC50 [3]: > 512 µg/mL; MIC [4]: > 512 µg/mL; MIC [5]: > 512 µg/mL; IC50 (urease [2]): 2.5 ± 0.37 µM

Q: Which Ki (urease [6]) does the source give for `O=C(CSc1nc2ccccc2c(=O)n1CCc1ccccc1)Nc1ncc([N+](=O)[O-])s1` [Compound 8h, N-(5-nitrothiazol-2-yl)-2-((4-oxo-3-phenethyl-3,4-dihydroquinazolin-2-yl)thio)acetamide] here?
A: 1.99 µM

Q: What about the “inhibition pattern against urease” value (urease [6]; Lineweaver–Burk plot) of the same molecule?
A: uncompetitive

Q: What about the IC50 (C. neoformans (H99)) of the same molecule?
A: 129 ± 5.3 µg/mL (≈ 277 µM)

Q: What about the IC50 [3] of the same molecule?
A: 172 ± 8.7 µg/mL (≈ 369 µM)

Q: And the MIC [4]?
A: > 512 µg/mL

Q: And the MIC [5]?
A: > 512 µg/mL

Q: What about the IC50 (urease [2]) of the same molecule?
A: 2.22 ± 0.44 µM

Q: And the “improvement in potency compared to thiourea” value (urease [2])?
A: ten-fold

Q: Which IC50 (urease [2]) does the source give for `CCCn1c(SCC(=O)Nc2ncc([N+](=O)[O-])s2)nc2ccccc2c1=O` [Compound 8i, N-(5-nitrothiazol-2-yl)-2-((4-oxo-3-propyl-3,4-dihydroquinazolin-2-yl)thio)acetamide] here?
A: 4.26 ± 0.46 µM

Q: For `CC(C)n1c(SCC(=O)Nc2ncc([N+](=O)[O-])s2)nc2ccccc2c1=O` [Compound 8j, 2-((3-isopropyl-4-oxo-3,4-dihydroquinazolin-2-yl)thio)-N-(5-nitrothiazol-2-yl)acetamide], which IC50 (urease [2]) is on record?
A: 6.04 ± 0.57 µM

Q: With `CCCCn1c(SCC(=O)Nc2ncc([N+](=O)[O-])s2)nc2ccccc2c1=O` [Compound 8k, 2-((3-butyl-4-oxo-3,4-dihydroquinazolin-2-yl)thio)-N-(5-nitrothiazol-2-yl)acetamide] as the molecule, how does the IC50 (urease [2]) read?
A: 3.02 ± 0.12 µM

Q: With `CC(C)Cn1c(SCC(=O)Nc2ncc([N+](=O)[O-])s2)nc2ccccc2c1=O` [Compound 8l, 2-((3-isobutyl-4-oxo-3,4-dihydroquinazolin-2-yl)thio)-N-(5-nitrothiazol-2-yl)acetamide] as the molecule, how does the IC50 (urease [2]) read?
A: 8.43 ± 0.61 µM

Q: For `C=CCn1c(SCC(=O)Nc2ncc([N+](=O)[O-])s2)nc2ccccc2c1=O` [Compound 8m, 2-((3-allyl-4-oxo-3,4-dihydroquinazolin-2-yl)thio)-N-(5-nitrothiazol-2-yl)acetamide], which IC50 (urease [2]) is on record?
A: 5.46 ± 0.38 µM

Q: Which IC50 (urease [2]) does the source give for `O=C(CSc1nc2ccccc2c(=O)n1C1CCCC1)Nc1ncc([N+](=O)[O-])s1` [Compound 8n, 2-((3-cyclopentyl-4-oxo-3,4-dihydroquinazolin-2-yl)thio)-N-(5-nitrothiazol-2-yl)acetamide] here?
A: 2.96 ± 0.45 µM

Q: With `Cc1cnc(NC(=O)CSc2nnc(-c3cccc([N+](=O)[O-])c3)o2)s1` [F] as the molecule, how does the IC50 (urease [1]; thiazolbenzamide, Fig. 1F) read?
A: 2.17 ± 0.41 µM

Q: Which “MIC50 against H. pylori” value (H. pylori) does the source give for `CC(=O)Oc1ccccc1C(=O)Nc1ncc([N+](=O)[O-])s1` [Nitazoxanide] here?
A: 4 µg/mL (≈ 13 µM)

Q: What about the “MIC90 against H. pylori” value (H. pylori) of the same molecule?
A: 8 µg/mL (≈ 26 µM)

Q: Which results are given for `NC(N)=S` [Thiourea, reference compound]?
A: IC50 (urease) (urease [1]; quinazolin-4(3H)-ones, Fig. 1C): 15.06 µg/mL (≈ 198 µM); IC50 (urease [2]; mean ± standard error of three independent experiments, read-out: IC50 (urease inhibitory activity)): 22.5 ± 0.44 µM

Q: For `O=C(Nc1ncc([N+](=O)[O-])s1)c1ccccc1O` [Tizoxanide], which “MIC50 against H. pylori” value (H. pylori) is on record?
A: 4 µg/mL (≈ 15.1 µM)

Q: What about the “MIC90 against H. pylori” value (H. pylori) of the same molecule?
A: 8 µg/mL (≈ 30.2 µM)
